Results published in ChEMBL document CHEMBL3885881, “DrugMatrix”.

Species: Rattus norvegicus
Experiment: DrugMatrix - Regimen: Daily Repeat
Format: toxicity, organism-based, Sprague-Dawley
Set-up: regimen Daily Repeat, gender Male, age 6-8 weeks
Settings: in vivo, po, route oral GAVAGE, vehicle 100 % WATER; for ABSOLUTE BASOPHIL / ABSOLUTE EOSINOPHIL / ABSOLUTE LYMPHOCYTE / ABSOLUTE MONOCYTE / ABSOLUTE SEGMENTED NEUTROPHIL / BASOPHIL / EOSINOPHIL / ERYTHROCYTE COUNT / HEMATOCRIT / HEMOGLOBIN / LEUKOCYTE COUNT / LYMPHOCYTE / MEAN CORPUSCULAR HEMOGLOBIN / MEAN CORPUSCULAR HEMOGLOBIN CONCENTRATION / MEAN CORPUSCULAR VOLUME / MONOCYTE / NEUTROPHIL / NUCLEATED RED BLOOD CELLS / PLATELET COUNT: tissue Blood; for ALANINE AMINOTRANSFERASE / ALBUMIN / ALKALINE PHOSPHATASE / ASPARTATE AMINOTRANSFERASE / BLOOD UREA NITROGEN / CARBON DIOXIDE / CHLORIDE / CHOLESTEROL / CREATINE PHOSPHOKINASE / CREATININE / GLUCOSE / LACTATE DEHYDROGENASE / LIPASE / PHOSPHORUS / POTASSIUM / SODIUM / TOTAL BILIRUBIN / TOTAL PROTEIN / URIC ACID: tissue Plasma
[1] = 0 mg/kg, 72 h, dose level Control, time 3 day
[2] = 0 mg/kg, 120 h, dose level Control, time 5 day
[3] = 2 mg/kg, 72 h, dose level Low, time 3 day

## CC(C)(C)c1ccc(C(=O)CCCN2CCC(OC(c3ccccc3)c3ccccc3)CC2)cc1 [EBASTINE]
[1]
  ABSOLUTE BASOPHIL: 0 CELLS/uL
  ABSOLUTE EOSINOPHIL: 123.17 CELLS/uL
  ABSOLUTE LYMPHOCYTE: 12677.83 CELLS/uL
  ABSOLUTE MONOCYTE: 66.17 CELLS/uL
  ABSOLUTE SEGMENTED NEUTROPHIL: 1149.5 CELLS/uL
  BASOPHIL: 0%
  EOSINOPHIL: 0.83%
  ERYTHROCYTE COUNT: 5.26 x10E6/uL
  HEMATOCRIT: 33.07%
  HEMOGLOBIN: 13.43 G/DL
  LEUKOCYTE COUNT: 14.02 x10E3/uL
  LYMPHOCYTE: 90.17%
  MEAN CORPUSCULAR HEMOGLOBIN: 25.62 pg
  MEAN CORPUSCULAR HEMOGLOBIN CONCENTRATION: 40.65 G/DL
  MEAN CORPUSCULAR VOLUME: 63 fL
  MONOCYTE: 0.5%
  NEUTROPHIL: 8.5%
  NUCLEATED RED BLOOD CELLS: 0.17 /100WBC
  PLATELET COUNT: 1142.83 x10E3/uL
  ALANINE AMINOTRANSFERASE: 45.17 u/L
  ALBUMIN: 3.78 G/DL
  ALKALINE PHOSPHATASE: 340.17 u/L
  ASPARTATE AMINOTRANSFERASE: 77.33 u/L
  BLOOD UREA NITROGEN: 14.67 mg/dL
  CARBON DIOXIDE: 28.67 mmol/L
  CHLORIDE: 101.17 MEQ/L
  CHOLESTEROL: 77.67 mg/dL
  CREATINE PHOSPHOKINASE: 263.67 u/L
  CREATININE: 0.15 mg/dL
  GLUCOSE: 169.33 mg/dL
  LACTATE DEHYDROGENASE: 230 u/L
  LIPASE: 9.67 u/L
  PHOSPHORUS: 11.8 mg/dL
  POTASSIUM: 5.91 MEQ/L
  SODIUM: 142.88 MEQ/L
  TOTAL BILIRUBIN: 0.22 mg/dL
  TOTAL PROTEIN: 5.7 G/DL
  URIC ACID: 1.35 mg/dL
[2]
  ABSOLUTE BASOPHIL: 0 CELLS/uL
  ABSOLUTE EOSINOPHIL: 125 CELLS/uL
  ABSOLUTE LYMPHOCYTE: 13809 CELLS/uL
  ABSOLUTE MONOCYTE: 351 CELLS/uL
  ABSOLUTE SEGMENTED NEUTROPHIL: 1581.67 CELLS/uL
  BASOPHIL: 0%
  EOSINOPHIL: 0.67%
  ERYTHROCYTE COUNT: 5.53 x10E6/uL
  HEMATOCRIT: 34.83%
  HEMOGLOBIN: 13.9 G/DL
  LEUKOCYTE COUNT: 15.87 x10E3/uL
  LYMPHOCYTE: 87.5%
  MEAN CORPUSCULAR HEMOGLOBIN: 25.25 pg
  MEAN CORPUSCULAR HEMOGLOBIN CONCENTRATION: 40.08 G/DL
  MEAN CORPUSCULAR VOLUME: 63.05 fL
  MONOCYTE: 2.17%
  NEUTROPHIL: 9.67%
  NUCLEATED RED BLOOD CELLS: 0 /100WBC
  PLATELET COUNT: 1044 x10E3/uL
  ALANINE AMINOTRANSFERASE: 50.67 u/L
  ALBUMIN: 4.33 G/DL
  ALKALINE PHOSPHATASE: 395 u/L
  ASPARTATE AMINOTRANSFERASE: 86 u/L
  BLOOD UREA NITROGEN: 15.33 mg/dL
  CARBON DIOXIDE: 29.33 mmol/L
  CHLORIDE: 101.5 MEQ/L
  CHOLESTEROL: 71.33 mg/dL
  CREATINE PHOSPHOKINASE: 323.17 u/L
  CREATININE: 0.18 mg/dL
  GLUCOSE: 145.67 mg/dL
  LACTATE DEHYDROGENASE: 389.5 u/L
  LIPASE: 9.83 u/L
  PHOSPHORUS: 11.35 mg/dL
  POTASSIUM: 6.39 MEQ/L
  SODIUM: 142.77 MEQ/L
  TOTAL BILIRUBIN: 0.18 mg/dL
  TOTAL PROTEIN: 6.1 G/DL
  URIC ACID: 1.52 mg/dL
[3]
  ABSOLUTE BASOPHIL: 0 CELLS/uL
  ABSOLUTE EOSINOPHIL: 62.33 CELLS/uL
  ABSOLUTE LYMPHOCYTE: 12860.33 CELLS/uL
  ABSOLUTE MONOCYTE: 62.33 CELLS/uL
  ABSOLUTE SEGMENTED NEUTROPHIL: 1348.33 CELLS/uL
  BASOPHIL: 0%
  EOSINOPHIL: 0.33%
  ERYTHROCYTE COUNT: 5.22 x10E6/uL
  HEMATOCRIT: 34.2%
  HEMOGLOBIN: 13.67 G/DL
  LEUKOCYTE COUNT: 14.33 x10E3/uL
  LYMPHOCYTE: 89.67%
  MEAN CORPUSCULAR HEMOGLOBIN: 26.2 pg
  MEAN CORPUSCULAR HEMOGLOBIN CONCENTRATION: 40 G/DL
  MEAN CORPUSCULAR VOLUME: 65.5 fL
  MONOCYTE: 0.33%
  NEUTROPHIL: 9.67%
  NUCLEATED RED BLOOD CELLS: 0 /100WBC
  PLATELET COUNT: 1183.33 x10E3/uL
  ALANINE AMINOTRANSFERASE: 47.67 u/L
  ALBUMIN: 3.87 G/DL
  ALKALINE PHOSPHATASE: 322 u/L
  ASPARTATE AMINOTRANSFERASE: 75.33 u/L
  BLOOD UREA NITROGEN: 14.33 mg/dL
  CARBON DIOXIDE: 32.67 mmol/L
  CHLORIDE: 99.67 MEQ/L
  CHOLESTEROL: 75.67 mg/dL
  CREATINE PHOSPHOKINASE: 258.67 u/L
  CREATININE: 0.13 mg/dL
  GLUCOSE: 151 mg/dL
  LACTATE DEHYDROGENASE: 188 u/L
  LIPASE: 10 u/L
  PHOSPHORUS: 11.23 mg/dL
  POTASSIUM: 6.55 MEQ/L
  SODIUM: 141.57 MEQ/L
  TOTAL BILIRUBIN: 0.2 mg/dL
  TOTAL PROTEIN: 5.63 G/DL
  URIC ACID: 1.3 mg/dL
